Assay results as given in PMC3064985 (Bioorganic & medicinal chemistry, 2010).

Columns and labels:
[1] = system: T. b. rhodesiense STIB900; test: STIB900 acute mouse model of trypanosomiasis; assay type: in vivo; conditions: 5 mg/kg ip, 4 consecutive days
Poly d(A-T)n = test: Thermal melting; assay type: binding; conditions: for Increase in ΔTm on replacing one furan ring with thiophene: compared with bifuran 1c
[2] = system: cultured L6 rat myoblast cells; test: Cytotoxicity, Alamar Blue assay; assay type: cell-based; conditions: read-out: Cytotoxicity IC50
Plasmodium falciparum K1 = test: In vitro activity against P. falciparum; assay type: cell-based; conditions: read-out: P. falciparum IC50; strain K1; average of duplicate determination

Molecule	Survival (average days of survival) [1] [days]	Increase in ΔTm on replacing one furan ring with thiophene (Poly d(A-T)n)	further results
Cl.N=C(N)c1ccc(-c2ccc(-c3ccc(C(=N)N)s3)s2)cc1 [Compound 1e, 5′-(4-Amidinophenyl)-2,2′-bithiophene-5-carboxamidine hydrochloride]	26.25	–	–
Cl.N=C(N)c1ccc(-c2ccc(-c3ccc(C(=N)N)o3)s2)cc1 [Compound 1f, 5-[5-(4-Amidinophenyl)-thiophen-2-yl]-furan-2-carboxamidine hydrochloride]	–	approximately 5 °C	–
Cl.N=C(N)c1ccc(-c2ccc(-c3ccc(C(=N)N)s3)o2)cc1 [Compound 1d, 5-[5-(4-Amidinophenyl)-furan-2-yl]-thiophene-2-carboxamidine hydrochloride]	–	approximately 5 °C	–
6-(5′-Amidino-2,2′-bifuran-5-yl)-nicotinamidine acetate [Compound 1h]	25.5	–	ΔTm, increase in thermal melting of Poly d(A-T)n (Poly d(A-T)n; ratio 0.3 mol compound per mole DNA, CAC 10 buffer pH 7.0): 6.0 °C; IC50 [2]: 26.9 µM; IC50 (Plasmodium falciparum K1): 0.0064 µM; Cures (mice that survive and are parasite free for 60 days) ([1]; groups of four mice): 0/4
